For series [1], the system named is Candida albicans(KCTC 1940), Aspergillus niger (ATCC 9642) and Saccharomyces cerevisiae. Nature of the series: Relative antifungal activity by agar dilution method (vs Miconazole).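 Also: scores 5 to 7 mean a lower fungicidal concentration than Miconazole so higher is more potent.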 It is filed as cell-based. From the text:
Novel compounds represented by the above chemical formula (I), and the relative activities in accordance with the agar dilution method in Sabouraud dextrose agar media, Czapek agar media and Yeast Extract-Peptone-Dextrose agar media for Candida albicans(KCTC 1940), Aspergillus niger (ATCC 9642) and Saccharomyces cerevisiae are described respectively in following Table 1.
For orientation: In agar dilution the substance is mixed into plates at graded concentrations.

The mark [2] stands for this setting: agar dilution method, fungicidal concentration relative to control drug Miconazole (=4).
[3] abbreviates: antifungal activity relative to Miconazole, agar dilution.

Structures can show the parent of a compound that is named as a salt.

As a reminder, the melting point is the temperature, or range, at which the solid turns liquid. For `CCCCCCCC1=[N+](Cc2ccccc2F)CCc2cc3c(cc21)OCO3.[Cl-]`, the melting point turned out to be 94 °C.

The compound `COc1cc2c(cc1OC)C(CCc1ccc(C(C)(C)C)cc1)=[N+](Cc1ccccc1F)CC2` (as salt: chloride) [Compound No. 124, 1-(2-(4-t-butylphenyl))ethyl-2-(2-fluorophenyl)methyl-3,4-dihydro-6,7-dimethoxyisoquinolinium chloride] displayed a melting point of 103 °C.

Regarding `COc1ccc(C[N+]2=C(CCc3ccc(C(C)(C)C)cc3)c3cc(OC)c(OC)cc3CC2)cc1OC` (as salt: chloride) [Compound No. 125, 1-(2-(4-t-butylphenyl))ethyl-2-(3,4-dimethoxyphenyl)methyl-3,4-dihydro-6,7-dimethoxyisoquinolinium chloride], the melting point was 100 °C.

The compound `COc1cc2c(cc1OC)C(CCc1ccc(C(C)(C)C)cc1)=[N+](Cc1cccc(OC)c1OCc1ccc(C(F)(F)F)cc1)CC2` (as salt: chloride) [Compound No. 132, 1-(2-(4-t-butylphenyl))ethyl-2-(2-(4-trifluoromethylbenzyloxy)-3-methoxyphenyl)methyl-3,4-dihydro-6,7-dimethoxy isoquinolinium chloride] gave a melting point of 60 °C.

`COc1cc2c(cc1OC)C(CCc1ccc(C(C)(C)C)cc1)=[N+](Cc1cccc(OC)c1OCc1c(F)cccc1Cl)CC2` (as salt: chloride) [Compound No. 133, 1-(2-(4-t-butylphenyl))ethyl-2-(2-(2-chloro-6-fluorobenzyloxy)-3-methoxyphenyl)methyl-3,4-dihydro-6,7-dimethoxyisoquinolinium chloride] registered a melting point of 63 °C.

With `COc1cc2c(cc1OC)C(CCc1ccc(C(C)(C)C)cc1)=[N+](Cc1cccc(OC)c1OCc1c(F)c(F)c(C(F)(F)F)c(F)c1F)CC2` (as salt: chloride) [Compound No. 135, 1-(2-(4-t-butylphenyl))ethyl-2-(2-(2,3,5,6-tetrafluoro-4-trifluoromethylbenzyloxy)-3-methoxyphenyl)methyl-3,4-dihydro-6,7-dimethoxy isoquinolinium chloride], the melting point stood at 140 °C.

For the compound `COc1cc2cc[n+](Cc3cccc(OC)c3OCc3ccc(C(F)(F)F)cc3)c(CCc3ccc(C(C)(C)C)cc3)c2cc1OC` (as salt: chloride) [Compound No. 149, 1-(2-(4-t-butylphenyl))ethyl-2-(2-(4-trifluoromethylbenzyloxy)-3-methoxyphenyl)methyl-6,7-dimethoxyisoquinolinium chloride], the melting point stood at 110 °C.

As for `CCCCCCCC1=[N+](Cc2ccccc2F)CCc2cc(OC)c(OC)cc21.[Cl-]` [Compound No. 11, 1-n-heptyl-2-(2-fluorophenyl)methyl-3,4-dihydro-6,7-dimethoxyisoquinolinium chloride], the melting point stood at 112 °C. Moreover, the “Relative Activity” value in series [1] (setting [2]) amounted to 4.

For the compound `COc1cc2c(cc1OC)C(c1cc(F)cc(F)c1)=[N+](Cc1ccccc1F)CC2.[Cl-]` [Compound No. 18, 1-(3,5-difluorophenyl)-2-(2-fluorophenyl)methyl-3,4-dihydro-6,7-dimethoxyisoquinolinium chloride], the melting point worked out at 118 °C. Besides, the “Relative Activity” value in series [1] (setting [2]) is reported as 6.

As to `COc1cc2c(cc1OC)C(c1ccc(C(C)(C)C)cc1)=[N+](Cc1ccccc1F)CC2.[Cl-]` [Compound No. 22, 1-(4-t-butylphenyl)-2-(2-fluorophenyl)methyl-3,4-dihydro-6,7-dimethoxyisoquinolinium chloride], the melting point stood at 125 °C. Also, in series [1] (setting [2]), the “Relative Activity” value is recorded as 6.

Compound `COc1cc2c(cc1OC)C(Cc1ccc(Cl)cc1Cl)=[N+](Cc1ccccc1F)CC2.[Cl-]` [Compound No. 25, 1-(2,4-dichlorophenyl)methyl-2-(2-fluorophenyl)methyl-3,4-dihydro-6,7-dimethoxyisoquinolinium chloride] gave a melting point of 182 °C. The “Relative Activity” value in series [1] (setting [2]) worked out at 6.

Consider `COc1cc2c(cc1OC)C(C)=[N+](Cc1ccc(F)c(F)c1)CC2.[Cl-]` [Compound No. 39, 1-methyl-2-(3,4-difluorophenyl)methyl-3,4-dihydro-6,7-dimethoxyisoquinolinium chloride], for which the melting point amounted to 88 °C. Besides, the “Relative Activity” value in series [1] (setting [2]) is 6.

The compound `COc1cc2c(cc1OC)C(c1ccc(C(C)(C)C)cc1)=[N+](Cc1ccc(F)c(F)c1)CC2.[Cl-]` [Compound No. 48, 1-(4-t-butylphenyl)-2-(3,4-difluorophenyl)methyl-3,4-dihydro-6,7-dimethoxyisoquinolinium chloride] showed a melting point of 97 °C. Besides, in series [1] (setting [2]), the “Relative Activity” value was 6.

As for `COc1cc2c(cc1OC)C(c1ccc(C(C)(C)C)cc1)=[N+](Cc1ccccc1Cl)CC2.[Cl-]` [Compound No. 55, 1-(4-t-butylphenyl)-2-(2-chlorophenyl)methyl-3,4-dihydro-6,7-dimethoxyisoquinolinium chloride], the melting point came to 117 °C. Also, the “Relative Activity” value in series [1] (setting [2]) came out at 6.

`CCCCCC1=[N+](Cc2c(F)cccc2F)CCc2cc(OC)c(OC)cc21.[Cl-]` [Compound No. 57, 1-n-pentyl-2-(2,6-difluorophenyl)methyl-3,4-dihydro-6,7-dimethoxyisoquinolinium chloride] came in with a melting point of 196 °C. For the same compound, the “Relative Activity” value in series [1] (setting [2]) turned out to be 6.

In turn, `CCCCCCCCCCCCCCCC1=[N+](Cc2c(F)cccc2F)CCc2cc(OC)c(OC)cc21.[Cl-]` [Compound No. 60, 1-n-pentadecyl-2-(2,6-difluorophenyl)methyl-3,4-dihydro-6,7-dimethoxyisoquinolinium chloride] returned a melting point of 104 °C. Also, the “Relative Activity” value in series [1] (setting [2]) is recorded as 1.

The compound `COc1cc2c(cc1OC)C(c1ccccc1F)=[N+](Cc1c(F)cccc1F)CC2.[Cl-]` [Compound No. 62, 1-(2-fluorophenyl)-2-(2,6-difluorophenyl)methyl-3,4-dihydro-6,7-dimethoxyisoquinolinium chloride] displayed a melting point of 79 °C. Also, the “Relative Activity” value in series [1] (setting [2]) is 6.

As for `COc1ccc2c(c1)CC[N+](Cc1ccccc1F)=C2C(C)C.[Cl-]` [Compound No. 83, 1-i-propyl-2-(2-fluorophenyl)methyl-3,4-dihydro-6-methoxyisoquinolinium chloride], the melting point came to 102 °C. For the same compound, the “Relative Activity” value in series [1] (setting [2]) is listed as 6.

`CC1=[N+](Cc2ccc(F)c(F)c2)CCc2cc3c(cc21)OCO3.[Cl-]` [Compound No. 111, 1-methyl-2-(3,4-difluorophenyl)methyl-3,4-dihydro-6,7-methylenedioxyisoquinolinium chloride]: the melting point worked out at 88 °C. Further, the “Relative Activity” value in series [1] (setting [2]) is given as 6.

Regarding `CCCCCCC1=[N+](Cc2ccc(C(C)(C)C)cc2)CCc2cc(OC)c(OC)cc21.[Cl-]` [Compound No. 126, 1-hexyl-2-(4-t-butylphenyl)methyl-3,4-dihydro-6,7-dimethoxy isoquinolinium chloride], the melting point was 34 °C. The “Relative Activity” value in series [1] (setting [2]) came out at 4.

On to `CCCCCCCCCCCCCCCC1=[N+](Cc2ccc(C(C)(C)C)cc2)CCc2cc(OC)c(OC)cc21.[Cl-]` [Compound No. 128, 1-pentadecyl-2-(4-t-butylphenyl)methyl-3,4-dihydro-6,7-dimethoxy isoquinolinium chloride], for which the melting point was 166 °C. The “Relative Activity” value in series [1] (setting [2]) was found to be 1.

In turn, `COc1cc2c(cc1OC)C(C)=[N+](Cc1cccc(OC)c1OCc1ccc(C(C)(C)C)cc1)CC2.[Cl-]` [Compound No. 138, 1-methyl-2-(2-(4-t-butylbenzyloxy)-3-methoxyphenyl)methyl-3,4-dihydro-6,7-dimethoxy isoquinolinium chloride] displayed a melting point of 105 °C. In series [1] (setting [2]), the “Relative Activity” value is reported as 6.

`CCCc1c2cc(OC)c(OC)cc2cc[n+]1Cc1c(F)cccc1Cl.[Cl-]` [Compound No. 139, 1-propyl-2-(2-chloro-6-fluorophenyl)methyl-6,7-dimethoxy-isoquinolinium chloride] came in with a melting point of 78 °C. In addition, the “Relative Activity” value in series [1] (setting [3]) is recorded as 6.

`COc1cc2cc[n+](Cc3c(F)cccc3Cl)c(C)c2cc1OC.[Cl-]` [Compound No. 140, 1-methyl-2-(2-chloro-6-fluorophenyl)methyl-6,7-dimethoxyisoquinolinium chloride]: the melting point turned out to be 96 °C. Besides, in series [1] (setting [3]), the “Relative Activity” value came out at 6.

`COc1cc2cc[n+](Cc3ccc(C(C)(C)C)cc3)c(C)c2cc1OC.[Cl-]` [Compound No. 143, 1-methyl-2-(4-t-butylphenyl)methyl-6,7-dimethoxyisoquinolinium chloride] showed a melting point of 350 °C. In series [1] (setting [3]), the “Relative Activity” value was found to be 6.

As for `CCCc1c2cc(OC)c(OC)cc2cc[n+]1Cc1ccc(C(C)(C)C)cc1.[Cl-]` [Compound No. 144, 1-propyl-2-(4-t-butylphenyl)methyl-6,7-dimethoxyisoquinolinium chloride], the melting point stood at 79 °C. Further, in series [1] (setting [3]), the “Relative Activity” value is on record as 6.

In the case of `CCCCCCc1c2cc(OC)c(OC)cc2cc[n+]1Cc1ccc(C(C)(C)C)cc1.[Cl-]` [Compound No. 145, 1-hexyl-2-(4-t-butylphenyl)methyl-6,7-dimethoxyisoquinolinium chloride], the melting point came to 105 °C. Further, in series [1] (setting [3]), the “Relative Activity” value came to 4.

Compound `CCCCCCCCCCCCCCCc1c2cc(OC)c(OC)cc2cc[n+]1Cc1ccc(C(C)(C)C)cc1.[Cl-]` [Compound No. 147, 1-pentadecyl-2-(4-t-butylphenyl)methyl-6,7-dimethoxyisoquinolinium chloride] registered a melting point of 120 °C. In addition, the “Relative Activity” value in series [1] (setting [3]) is 1.

(Values after patent US20090221829A1 (priority 2005, published 2009).)
